Test results taken from PubChem BioAssay AID1919001 (Molecular Pharmacology Branch, DTP, NCI, 2023).

Test system: 699152-130-R-J1-PDC complex spheroid growth
Assay: Anticancer human tumor 699152-130-R-J1-PDC patient-derived pancreatic carcinoma cell line growth inhibition [AhR]
Settings: for IC50: curve of first compound; for viability, T/C: stronger effect = lower value
Excerpt: Multicellular complex tumor spheroid response to aryl hydrocarbon receptor antagonists in combination with a variety of drugs and investigational agents in selected tumor cell lines
The current study was undertaken to assess response to aryl hydrocarbon receptor antagonists in combination with standard-of-care drugs and investigational agents in solid tumor complex spheroid models. Complex spheroids include a stromal component modeled by human endothelial cells (HUVEC) and fibroblasts modeled by human mesenchymal stem cells (MSCs). The concentration ranges selected for each drug and investigational agent were based upon clinically achievable concentrations if the clinical Cmax of the agent was known.
Compounds. The drugs and investigational agents: BAY 2416964 (NSC825713), GNF351 (NSC835774), CH-223191 (NSC835775), CPI-455 (NSC825282), aza-TdCyd (NSC777586), decitabine (NSC127716), belinostat (NSC758774), entinostat (NSC756642), pevonedistat (NSC761192), tazemetostat (NSC777109), talazoparib (NSC765396), olaparib (NSC753686), selinexor (NSC780203), nedisertib (M3814, NSC802822), bortezomib (NSC756655), venetoclax (NSC766270), doxorubicin (NSC123127), elimusertib (BAY189344, NSC800525), ceralasertib (AZD6738, NSC777638), TAK-243 (NSC785004), alisertib (NSC759677), etoposide (NSC141540), topotecan (NSC609699), eribulin (NSC707389), gemcitabine (NSC613327), carboplatin (NSC241240), cisplatin (NSC119875), and SN-38 (NSC673596) were obtained from the National Cancer Institute (NCI) Developmental Therapeutics Program Chemical Repository (32). The FDA-approved anticancer drug set is available from the Developmental Therapeutics Program at https://dtp.cancer.gov/organization/dscb/obtaining/available plates.htm. […] The stock solutions were prepared in dimethyl sulfoxide (DMSO, Sigma-Aldrich, St. Louis, MO, cat. D2650), except for the platinum compounds which were prepared in saline (Quality Biological, Gaithersburg, MD, cat. 114-055-101), at 800-fold the tested concentration and stored at -70 degrees C prior to their use. All drugs and investigational agents were tested over a range starting from a high concentration at or near the clinical Cmax and decreasing in half-log increments. If the clinical Cmax for an agent had not been determined, the highest concentration tested was 10 microM (Table 1).
Cell Culture. All cells were maintained in an incubator at 37 degrees C and 5% CO2 with 95% humidity. The PDC lines were cultured according to standard operating procedures established by the NCI PDMR (https://pdmr.cancer.gov). Briefly, all PDCs were thawed and cultured in Matrigel-coated flasks prepared with a working solution of 1X Ham's F-12 nutrient mix, without supplementation (Invitrogen, Waltham, MA, cat. 11765054), 100 U/mL penicillin-streptomycin (Invitrogen, cat. 15140122), and 2.5% Matrigel (Corning Inc., Corning, NY, cat. 354248) for the first three passages. All PDCs were cultured in complete DMEM/F-12 media containing advanced DMEM/F-12 (Invitrogen, cat. 12634028), 4.9% defined fetal bovine serum, heat inactivated (HyClone Laboratories Inc., Logan, UT, cat. SH30070.03HI), 389 ng/mL hydrocortisone (Sigma-Aldrich, cat. H4001), 9.7 ng/mL human EGF recombinant protein (Invitrogen, cat. PHG0313), 23.4 microg/mL adenine (Sigma-Aldrich, cat. A2786), 97.3 U/mL penicillin-streptomycin (Invitrogen, cat. 15140122), 1.9 mM L-glutamine (Invitrogen, cat. 25030081), and 9.7 microM Y-27632 dihydrochloride (Tocris Bioscience, Bristol, United Kingdom, cat. 1254). The PDCs were cultured in complete DMEM/F12 media without 10 microM Y-27632 dihydrochloride for at least two passages prior to the screen. The established cell lines NCI-H1341 and […] were cultured in DMEM/F-12, HEPES (Invitrogen, cat. 11330032), 5% defined fetal bovine serum (HyClone Laboratories Inc., cat. SH30070.03), ITS premix universal culture supplement [insulin (5 microg/mL), transferrin (5 microg/mL), and selenious acid (5 ng/mL)] […]

[1] = second compound 0.1 µM, first compound 0.0316 µM
[2] = second compound 0.1 µM, first compound 0.1 µM
[3] = second compound 0.316 µM, first compound 0.0316 µM
[4] = second compound 0.316 µM, first compound 0.1 µM
[5] = second compound 1 µM, first compound 0.0316 µM
[6] = second compound 1 µM, first compound 0.1 µM
[7] = second compound 3.16 µM, first compound 0.0316 µM
[8] = second compound 3.16 µM, first compound 0.1 µM
[9] = second compound 10 µM, first compound 0.0316 µM
[10] = second compound 10 µM, first compound 0.1 µM
[11] = second compound 0.1 µM, first compound 0.316 µM
[12] = second compound 0.1 µM, first compound 1 µM
[13] = second compound 0.1 µM, first compound 3.16 µM
[14] = second compound 0.1 µM, first compound 10 µM
[15] = second compound 0.316 µM, first compound 0.316 µM
[16] = second compound 0.316 µM, first compound 1 µM
[17] = second compound 0.316 µM, first compound 3.16 µM
[18] = second compound 0.316 µM, first compound 10 µM
[19] = second compound 1 µM, first compound 0.316 µM
[20] = second compound 1 µM, first compound 1 µM
[21] = second compound 1 µM, first compound 3.16 µM
[22] = second compound 1 µM, first compound 10 µM
[23] = second compound 3.16 µM, first compound 0.316 µM
[24] = second compound 3.16 µM, first compound 1 µM
[25] = second compound 3.16 µM, first compound 3.16 µM
[26] = second compound 3.16 µM, first compound 10 µM
[27] = second compound 10 µM, first compound 0.316 µM
[28] = second compound 10 µM, first compound 1 µM
[29] = second compound 10 µM, first compound 3.16 µM
[30] = second compound 10 µM, first compound 10 µM
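Also: compound exposure lasted 7 days after spheroids had grown for 3 days.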

For `CC[C@@]1(O)C(=O)OCc2c1cc1n(c2=O)Cc2cc3c(CN(C)C)c(O)ccc3nc2-1` + Cc1cncc(-c2nc(NCCc3c[nH]c4ccccc34)c3ncn(C(C)C)c3n2)c1, the IC50 (second compound 0.1 µM) was > 100 nM, the IC50 (second compound 0.316 µM) was > 100 nM and the IC50 (second compound 1 µM) was > 100 nM. For the same molecule, the IC50 (second compound 3.16 µM) was > 100 nM, the IC50 (second compound 10 µM) was < 0.316 nM and the viability, T/C (second compound 0.1 µM, first compound 0.000316 µM) was 102%. It also gave a viability, T/C (second compound 0.1 µM, first compound 0.001 µM) of 98.5%, a viability, T/C (second compound 0.1 µM, first compound 0.00316 µM) of 100% and a viability, T/C (second compound 0.1 µM, first compound 0.01 µM) of 101%. The viability, T/C [1] was 80.7%, the viability, T/C [2] was 69.6% and the viability, T/C (second compound 0.316 µM, first compound 0.000316 µM) was 101%. For the same molecule, the viability, T/C (second compound 0.316 µM, first compound 0.001 µM) was 98.4%, the viability, T/C (second compound 0.316 µM, first compound 0.00316 µM) was 98% and the viability, T/C (second compound 0.316 µM, first compound 0.01 µM) was 93.9%. For the same molecule, the viability, T/C [3] was 80.3%, the viability, T/C [4] was 66.5% and the viability, T/C (second compound 1 µM, first compound 0.000316 µM) was 105%. It also gave a viability, T/C (second compound 1 µM, first compound 0.001 µM) of 107%, a viability, T/C (second compound 1 µM, first compound 0.00316 µM) of 105% and a viability, T/C (second compound 1 µM, first compound 0.01 µM) of 99.4%. The viability, T/C [5] was 83.9%, the viability, T/C [6] was 62.9% and the viability, T/C (second compound 3.16 µM, first compound 0.000316 µM) was 112%. For the same molecule, the viability, T/C (second compound 3.16 µM, first compound 0.001 µM) was 92.8%, the viability, T/C (second compound 3.16 µM, first compound 0.00316 µM) was 95% and the viability, T/C (second compound 3.16 µM, first compound 0.01 µM) was 93.7%. For the same molecule, the viability, T/C [7] was 64%, the viability, T/C [8] was 54.7% and the viability, T/C (second compound 10 µM, first compound 0.000316 µM) was 12.6%. It also gave a viability, T/C (second compound 10 µM, first compound 0.001 µM) of 11.5%, a viability, T/C (second compound 10 µM, first compound 0.00316 µM) of 10.6% and a viability, T/C (second compound 10 µM, first compound 0.01 µM) of 12.1%. It also gave a viability, T/C [9] of 11.1% and a viability, T/C [10] of 14.1%.
`NS(=O)(=O)OCC1CC(n2ccc3c(NC4CCc5ccccc54)ncnc32)CC1O` (stereo not given) + CC(CO)NC(=O)c1cc(-c2ccc(Cl)cc2)nn(-c2cnn(C)c2)c1=O was tested, and the IC50 (second compound 0.1 µM) was 831 nM, the IC50 (second compound 0.316 µM) was 765 nM and the IC50 (second compound 1 µM) was 679 nM. It also gave an IC50 (second compound 3.16 µM) of 626 nM, an IC50 (second compound 10 µM) of 602 nM and a viability, T/C [1] of 108%. The viability, T/C [2] was 127%, the viability, T/C [11] was 120% and the viability, T/C [12] was 36.9%. The viability, T/C [13] was 25.2%, the viability, T/C [14] was 29.3% and the viability, T/C [3] was 116%. For the same molecule, the viability, T/C [4] was 132%, the viability, T/C [15] was 97.2% and the viability, T/C [16] was 36.8%. For the same molecule, the viability, T/C [17] was 27.5%, the viability, T/C [18] was 29.1% and the viability, T/C [5] was 115%. For the same molecule, the viability, T/C [6] was 126%, the viability, T/C [19] was 91.1% and the viability, T/C [20] was 30.4%. The viability, T/C [21] was 23.1%, the viability, T/C [22] was 31.4% and the viability, T/C [7] was 114%. It also gave a viability, T/C [8] of 127%, a viability, T/C [23] of 80.2% and a viability, T/C [24] of 31.6%. The viability, T/C [25] was 25.5%, the viability, T/C [26] was 30.6% and the viability, T/C [9] was 115%. It also gave a viability, T/C [10] of 104%, a viability, T/C [27] of 69.5% and a viability, T/C [28] of 34.1%. The viability, T/C [29] was 27.1% and the viability, T/C [30] was 30.8%.
`COc1cc(Nc2ncc3c(n2)-c2ccc(Cl)cc2C(c2c(F)cccc2OC)=NC3)ccc1C(=O)O` + CC(CO)NC(=O)c1cc(-c2ccc(Cl)cc2)nn(-c2cnn(C)c2)c1=O was tested, and the IC50 (second compound 0.1 µM) was > 10000 nM, the IC50 (second compound 0.316 µM) was > 10000 nM and the IC50 (second compound 1 µM) was > 10000 nM. The IC50 (second compound 3.16 µM) was > 10000 nM, the IC50 (second compound 10 µM) was > 10000 nM and the viability, T/C [1] was 92.5%. For the same molecule, the viability, T/C [2] was 79.1%, the viability, T/C [11] was 78.6% and the viability, T/C [12] was 65.3%. For the same molecule, the viability, T/C [13] was 63.8%, the viability, T/C [14] was 62.3% and the viability, T/C [3] was 97%. It also gave a viability, T/C [4] of 94.4%, a viability, T/C [15] of 74.5% and a viability, T/C [16] of 63%. The viability, T/C [17] was 65.1%, the viability, T/C [18] was 60.9% and the viability, T/C [5] was 95%. The viability, T/C [6] was 84%, the viability, T/C [19] was 86% and the viability, T/C [20] was 65.8%. It also gave a viability, T/C [21] of 64.1%, a viability, T/C [22] of 59.7% and a viability, T/C [7] of 85%. For the same molecule, the viability, T/C [8] was 76.1%, the viability, T/C [23] was 85.3% and the viability, T/C [24] was 59.6%. For the same molecule, the viability, T/C [25] was 60.2%, the viability, T/C [26] was 56.1% and the viability, T/C [9] was 78.7%. It also gave a viability, T/C [10] of 85.8%, a viability, T/C [27] of 83% and a viability, T/C [28] of 73.1%. For the same molecule, the viability, T/C [29] was 69.7% and the viability, T/C [30] was 58.9%.
